Reference: US5591717A, “Branched apogenic peptide for inducing apoptosis” (priority 1994, dated 1997)

Key:
HL60 cells [1] = test: Augmentation by 1,25-dihydroxy vitamin D3 in HL60 cells, microscopy; format: cell-based, human; settings: simultaneous exposure
Method: At 1 μM, 1,25-dihydroxy vitamin D3 will drive differentiation of HL60 cells into monocytes; overt differentiation requires 72-96 hours. Accordingly, HL60 cell cultures were simultaneously exposed to a subapoptotic dose of 1 μM CSarma VR5-BAP and 0.5 or 1.0 μM 1, 25-dihydroxy vitamin D3. The cultures were then evaluated by inverted phase microscopy of tissue culture plates and by light microscopic examination of Wright-Giemsa stained cytocentrifuge preparations.

HL60 cells [2] = test: Sodium butyrate or retinoic acid with sub-apoptotic CSarma VR5-BAP in HL60 cells; format: cell-based, human; settings: 1 μM agent, 2, 3 and 5 days
Method: At 1 μM sodium butyrate and retinoic acid induce monocytic and granulocytic differentiation in HL60 cells, respectively. Neither the sodium butyrate nor retinoic acid is specifically associated with calcium transport. HL60 cells were simultaneously exposed to such […] dose (1 μM) of CSarma VR5-BAP and to either 1 μM sodium butyrate or 1 μM retinoic acid. Cells were cultured for 5 days and evaluated by inverted phase contrast microscopy and light microscopic examination of Wright-Giemsa-Stained cytrocentrifuge preparation. Samples were taken at 2, 3 and 5 days.

[3] = test system: HL60, K562, 3201 and H9 cells
Method: A commonly used anti-apogenic compound is zinc. HL60, K562, 3201 and H9 cells were exposed to 1, 2, 4, 7.9, 15.7, 31.3, 62.5, 125, 250, 500, and 1000 μM zinc sulfate and 6 μM CSarma VR5-BAP. The cells were cultured for 24 and 8 hours.

HL60 cell cultures = test: Heparin reversal of CSarma VR5-BAP effect in HL60 cells, MTT and INDO-1; format: cell-based, human
Method: HL60 cell cultures were treated with 6 μM CSarma VR5-BAP and 0.3 U/ml, or 3.0 U/ml heparin. Control cell cultures received either no polypeptide or 0.3 U/ml or 3.0 U/ml heparin. Cell growth was determined at 1 and 2 days as assessed by MTT cell proliferation/viability assay. The mobilization of intracellular calcium was assessed by INDO-1 staining and anchored cell fluorescent microscopy.

## C=C1/C(=C\C=C2/CCC[C@]3(C)[C@@H]([C@H](C)CCCC(C)(C)O)CC[C@@H]23)C[C@@H](O)C[C@@H]1O [1,25-dihydroxy vitamin D3, 1,25-dihydroxycholecalciferol]
HL60 cells [1]
  increase of sensitivity of HL60 cells to CSarma VR5-BAP: six-fold

## CC1=C(/C=C/C(C)=C/C=C/C(C)=C/C(=O)O)C(C)(C)CCC1 [retinoic acid]
HL60 cells [2]
  apoptosis on simultaneous treatment with 1 μM CSarma VR5-BAP: did not cause apoptosis

## CCCC(=O)[O-].[Na+] [sodium butyrate]
HL60 cells [2]
  apoptosis on simultaneous treatment with 1 μM CSarma VR5-BAP: did not cause apoptosis

## O=S(=O)([O-])[O-].[Zn+2] [zinc sulfate]
[3]
  concentration with direct toxicity: greater than 31.3 μM
[3]; 1 to 1000 μM zinc sulfate with 6 μM CSarma VR5-BAP
  reversal of CSarma VR5-BAP induced apoptosis: failed to reverse

## heparin
HL60 cell cultures; INDO-1 staining
  mobilization of intracellular calcium: prevents mobilization of intracellular calcium
HL60 cell cultures; MTT, 1 and 2 days
  concentration inhibiting the growth suppression of 6 μM CSarma VR5-BAP: greater than or equal to 0.3 U/ml
